Source: article PMC5411961, “One amino acid makes a difference–Characterization of a new TPMT allele and the influence of SAM on TPMT stability” (Scientific Reports, 2017)

Target: T1, TPMTwt (Homo sapiens, UniProt P51580)
T1 construct: gene TPMT; recombinant, pET-28a, E. coli BL21(DE3) CodonPlus, His-tag cleaved off with thrombin, Ni-NTA and gel filtration
T1 sequence (P51580 1-245): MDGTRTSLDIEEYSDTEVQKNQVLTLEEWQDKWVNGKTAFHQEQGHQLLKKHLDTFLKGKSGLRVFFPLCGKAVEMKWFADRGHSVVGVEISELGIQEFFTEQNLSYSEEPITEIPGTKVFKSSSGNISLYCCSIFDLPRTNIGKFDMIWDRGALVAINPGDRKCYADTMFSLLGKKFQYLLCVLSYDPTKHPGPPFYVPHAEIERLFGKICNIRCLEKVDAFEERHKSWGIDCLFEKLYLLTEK
Assay: isothermal titration calorimetry
Assay type: binding

Kd: 2700 nM
SMILES: C[S+](CC[C@H](N)C(=O)O)C[C@H]1O[C@@H](n2cnc3c(N)ncnc32)[C@H](O)[C@@H]1O (stereo partly shown) [SAM]
